What was measured:
hENPP2 [1] = biological target: T1, hENPP2 (UniProtKB/SwissProt Sequence ref Q13822) (Homo sapiens (Human), UniProt Q13822); assay: FS3 hENPP2 assay (fluorogenic substrate FS-3); assay type: biochemical; conditions: hENPP2, FS-3 as substrate
Description: Compound IC50 values are determined in a fluorescent hENPP2 (UniProtKB/SwissProt Sequence ref Q13822) biochemical assay using the fluorogenic autotaxin substrate FS-3 as substrate. FS-3 is a doubly labeled analog of LPC wherein the fluorophore is quenched through intramolecular energy transfer. Without hENPP2, the emission of the probe is quenched. If the substrate is hydrolyzed by hENPP2, the emission of the probe is not quenched anymore resulting in a fluorescence increase. Inhibition of hENPP2 by compounds will result in a decrease of the signal.
10 μL of a dilution series of compound, starting from 20 μM highest concentration, ⅕ dilution, is added to the wells. hENPP2 is used at a final concentration of 0.4 μg/mL or 0.64 μg/mL (it will be appreciated by the skilled person that the potency read out is independent of the enzyme concentration). The enzyme is diluted in 50 mM Tris-HCl pH 8.0, 250 mM NaCl, 5 mM KCl, 1 mM MgCl2, 1 mM CaCl2, 0.1% fatty acid free BSA in a total volume of 20 μL. Enzyme mixture is added to compounds and the resulting mixture is incubated for 30 min at room temperature under shaking. The reaction is started by the addition of 20 μL of 0.75 μM FS-3 diluted in the same buffer as described above and the mixture is incubated at 30° C. for 30 min. Fluorescence is read on the Envision (Excitation 485 nm, emission 520 nm).

hENPP2 [2] = biological target: T1, hENPP2; assay: LPC hENPP2 assay (choline release, LPC as substrate); assay type: biochemical
Outline: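 Detection is coupled: choline oxidase produces peroxide, which HRP uses to form quinoneimine dye from TOOS and 4-aminoantipyrine, read at 555 nm. The reaction is stopped with 20 mM EGTA in the developer mix, then incubated 30 min at room temperature; inhibition lowers signal.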

SMILES	IC50 (hENPP2 [1])	IC50 (hENPP2 [2])
CCc1nc2ccc(N3CCN(CCC#N)CC3)nn2c1N(C)c1nc(-c2ccc(F)cc2)cs1 [Cpd 51]	0.01 to 25 nM	> 1000 nM
CCc1nc2ccc(N3CCN(CCOC)CC3)nn2c1N(C)c1nc(-c2ccc(F)cc2)cs1 [Cpd 53, N-(2-ethyl-6-(4-(2-methoxyethyl)piperazin-1-yl)imidazo[1,2-b]pyridazin-3-yl)-4-(4-fluorophenyl)-N-methylthiazol-2-amine]	0.01 to 25 nM	> 1000 nM
CCc1nc2ccc(N3CCC(NC(=O)OC(C)(C)C)C3)nn2c1N(C)c1nc(-c2ccc(F)cc2)cs1 (stereo not drawn) [Cpd 133, tert-butyl 1-(2-ethyl-3-((4-(4-fluorophenyl)thiazol-2-yl)(methyl)amino)imidazo[1,2-b]pyridazin-6-yl)pyrrolidin-3-ylcarbamate]	0.01 to 25 nM	> 1000 nM
CCc1nc2ccc(N3CC(NC(=O)OC(C)(C)C)C3)nn2c1N(C)c1nc(-c2ccc(F)cc2)cs1 [Cpd 154, [1-(2-Ethyl-3-{[4-(4-fluoro-phenyl)-thiazol-2-yl]-methyl-amino}-imidazo[1,2-b]pyridazin-6-yl)-azetidin-3-yl]-carbamic acid tert-butyl ester]	0.01 to 25 nM	> 1000 nM
CCc1nc2ccc(N3CC4CN(S(=O)(=O)CCCCl)CC4C3)nn2c1N(C)c1nc(-c2ccc(F)cc2)cs1 (stereo not drawn) [Cpd 125, N-(6-(5-(3-chloropropyl-sulfonyl)-hexahydropyrrolo [3,4-c]pyrrol-2(1H)-yl)-2-ethylimidazo[1,2-b]pyridazin-3-yl)-4-(4-fluorophenyl)-N-methylthiazol-2-amine]	0.01 to 25 nM	> 1000 nM
CCc1nc2ccc(N3CCN(CC(=O)N(C)C)CC3)nn2c1N(C)c1nc(-c2ccc(F)cc2)c(C(=O)C(F)(F)F)s1 [Cpd 45, 2-(4-(2-ethyl-3-((4-(4-fluorophenyl)-5-(2,2,2-trifluoroacetoyl)thiazol-2-yl)(methyl)amino)imidazo[1,2-b]pyridazin-6-yl)piperazin-1-yl)-N,N-dimethylacetamide]	0.01 to 25 nM	0.01 to 100 nM
CCc1nc2cnc(N3CCN(CC(=O)NC)CC3)cn2c1N(C)c1nc(-c2ccc(F)cc2)c(C#N)s1 [Cpd 9, 2-(4-(3-((5-cyano-4-(4-fluorophenyl)thiazol-2-yl)(methyl)amino)-2-ethylimidazo[1,2-a]pyrazin-6-yl)piperazin-1-yl)-N-methylacetamide]	0.01 to 25 nM	500 to 1000 nM
CCc1nc2ccc(N3CCCC(CO)C3)nn2c1N(C)c1nc(-c2ccc(F)cc2)cs1 (stereo not drawn) [Cpd 94, (1-(2-ethyl-3-((4-(4-fluorophenyl)thiazol-2-yl)(methyl)amino)imidazo[1,2-b]pyridazin-6-yl)piperidin-3-yl)methanol]	0.01 to 25 nM	> 1000 nM
CCc1nc2ccc(N3CCC(S(=O)(=O)NC4CC4)CC3)nn2c1N(C)c1nc(-c2ccc(F)cc2)cs1 [Cpd 114, N-cyclopropyl-1-(2-ethyl-3-((4-(4-fluorophenyl)thiazol-2-yl)(methyl)amino)imidazo[1,2-b]pyridazin-6-yl)piperidine-4-sulfonamide]	50 to 100 nM	> 1000 nM
CCc1nc2ccc(N3CCN(CCN4CCCC4=O)CC3)nn2c1N(C)c1nc(-c2ccc(F)cc2)cs1 [Cpd 46, 1-(2-(4-(2-ethyl-3-((4-(4-fluorophenyl)thiazol-2-yl)(methyl)amino)imidazo[1,2-b]pyridazin-6-yl)piperazin-1-yl)ethyl)pyrrolidin-2-one]	0.01 to 25 nM	100 to 500 nM
CCc1nc2ccc(N3CCC(=O)C3)nn2c1N(C)c1nc(-c2ccc(F)cc2)c(C#N)s1 [Compound 172, 2-((2-ethyl-6-(3-oxopyrrolidin-1-yl)imidazo[1,2-b]pyridazin-3-yl)(methyl)amino)-4-(4-fluorophenyl)thiazole-5-carbonitrile]	0.01 to 25 nM	100 to 500 nM
CCc1nc2ccc(N3CCN[C@H](CO)C3)nn2c1N(C)c1nc(-c2ccc(F)cc2)cs1 [Cpd 60, (S)-(4-(2-ethyl-3-((4-(4-fluorophenyl)thiazol-2-yl)(methyl)amino)imidazo[1,2-b]pyridazin-6-yl)piperazin-2-yl)methanol]	0.01 to 25 nM	> 1000 nM
CCc1nc2ccc(N3CCC(CC(=O)N(C)C)CC3)nn2c1N(C)c1nc(-c2ccc(F)cc2)cs1 [Cpd 108, 2-(1-(2-ethyl-3-((4-(4-fluorophenyl)thiazol-2-yl)(methyl)amino)imidazo[1,2-b]pyridazin-6-yl)piperidin-4-yl)-N,N-dimethylacetamide]	0.01 to 25 nM	500 to 1000 nM
CCc1nc2ccc(N3CCC(N4CCSCC4)C3)nn2c1N(C)c1nc(-c2ccc(F)cc2)cs1 (stereo not drawn) [Cpd 131, N-(2-ethyl-6-(3-thiomorpholino-pyrrolidin-1-yl)imidazo[1,2-b]pyridazin-3-yl)-4-(4-fluorophenyl)-N-methylthiazol-2-amine]	0.01 to 25 nM	> 1000 nM
CCc1nc2ccc(C3CCN(CC(=O)N(C)C)CC3)nn2c1N(C)c1nc(-c2ccc(F)cc2)cs1 [Cpd 202, 2-(4-(2-ethyl-3-((4-(4-fluorophenyl)thiazol-2-yl)(methyl)amino)imidazo[1,2-b]pyridazin-6-yl)piperidin-1-yl)-N,N-dimethylacetamide]	0.01 to 25 nM	500 to 1000 nM
CCc1nc2ccc(N3CCN(CC(=O)N(C)C)CC3)nn2c1N(C)c1nc(-c2ccc(F)cc2)c(CO)s1 [Cpd 43, 2-(4-(2-ethyl-3-((4-(4-fluorophenyl)-5-(hydroxymethyl)thiazol-2-yl)(methyl)amino)imidazo[1,2-b]pyridazin-6-yl)piperazin-1-yl)-N,N-dimethylacetamide]	0.01 to 25 nM	100 to 500 nM
CCc1nc2ccc(N3CCC(N)C3)nn2c1N(C)c1nc(-c2ccc(F)cc2)cs1 (stereo not drawn) [Cpd 134, N-(6-(3-aminopyrrolidin-1-yl)-2-ethylimidazo[1,2-b]pyridazin-3-yl)-4-(4-fluorophenyl)-N-methylthiazol-2-amine]	0.01 to 25 nM	> 1000 nM
CCc1nc2ccc(N3CCCN(S(C)(=O)=O)CC3)nn2c1N(C)c1nc(-c2ccc(F)cc2)cs1 [Cpd 116, N-(2-ethyl-6-(4-(methylsulfonyl)-1,4-diazepan-1-yl)imidazo[1,2-b]pyridazin-3-yl)-4-(4-fluorophenyl)-N-methylthiazol-2-amine]	0.01 to 25 nM	> 1000 nM
CCc1nc2ccc(N3CC4CN(S(=O)(=O)CCCN(C)C)CC4C3)nn2c1N(C)c1nc(-c2ccc(F)cc2)cs1 (stereo not drawn) [Cpd 126, N-(6-(5-(3-(dimethylamino)propylsulfonyl)hexahydropyrrolo [3,4-c]pyrrol-2(1H)-yl)-2-ethylimidazo[1,2-b]pyridazin-3-yl)-4-(4-fluorophenyl)-N-methylthiazol-2-amine]	0.01 to 25 nM	500 to 1000 nM
CCc1nc2ccc(N3CC4CN(C(C)=O)CC4C3)nn2c1N(C)c1nc(-c2ccc(F)cc2)cs1 (stereo not drawn) [Compound 124, 1-(5-(2-ethyl-3-((4-(4-fluorophenyl)thiazol-2-yl)(methyl)amino)imidazo[1,2-b]pyridazin-6-yl)hexahydropyrrolo[3,4-c]pyrrol-2(1H)-yl)ethanone]	0.01 to 25 nM	> 1000 nM
CCc1nc2ccc(N3CCC(O)C3)nn2c1N(C)c1nc(-c2ccc(F)cc2)c(C#N)s1 (stereo not drawn) [Cpd 171, 2-((2-ethyl-6-(3-hydroxypyrrolidin-1-yl)imidazo[1,2-b]pyridazin-3-yl)(methyl)amino)-4-(4-fluorophenyl) thiazole-5-carbonitrile]	0.01 to 25 nM	100 to 500 nM
